Measurements reported in ChEMBL document CHEMBL5291721, “A preclinical secondary pharmacology resource illuminates target-adverse drug reaction associations of marketed drugs” (Nat Commun, 2023).
One block for each molecule: values may come before it.

How the values were obtained:
[1] = biological target: Prostaglandin G/H synthase 1 (Homo sapiens, UniProt P23219); format: functional
Androgen receptor [2] = biological target: T1, Androgen receptor (Homo sapiens, UniProt P10275)
T1 sequence (P10275 whole entry): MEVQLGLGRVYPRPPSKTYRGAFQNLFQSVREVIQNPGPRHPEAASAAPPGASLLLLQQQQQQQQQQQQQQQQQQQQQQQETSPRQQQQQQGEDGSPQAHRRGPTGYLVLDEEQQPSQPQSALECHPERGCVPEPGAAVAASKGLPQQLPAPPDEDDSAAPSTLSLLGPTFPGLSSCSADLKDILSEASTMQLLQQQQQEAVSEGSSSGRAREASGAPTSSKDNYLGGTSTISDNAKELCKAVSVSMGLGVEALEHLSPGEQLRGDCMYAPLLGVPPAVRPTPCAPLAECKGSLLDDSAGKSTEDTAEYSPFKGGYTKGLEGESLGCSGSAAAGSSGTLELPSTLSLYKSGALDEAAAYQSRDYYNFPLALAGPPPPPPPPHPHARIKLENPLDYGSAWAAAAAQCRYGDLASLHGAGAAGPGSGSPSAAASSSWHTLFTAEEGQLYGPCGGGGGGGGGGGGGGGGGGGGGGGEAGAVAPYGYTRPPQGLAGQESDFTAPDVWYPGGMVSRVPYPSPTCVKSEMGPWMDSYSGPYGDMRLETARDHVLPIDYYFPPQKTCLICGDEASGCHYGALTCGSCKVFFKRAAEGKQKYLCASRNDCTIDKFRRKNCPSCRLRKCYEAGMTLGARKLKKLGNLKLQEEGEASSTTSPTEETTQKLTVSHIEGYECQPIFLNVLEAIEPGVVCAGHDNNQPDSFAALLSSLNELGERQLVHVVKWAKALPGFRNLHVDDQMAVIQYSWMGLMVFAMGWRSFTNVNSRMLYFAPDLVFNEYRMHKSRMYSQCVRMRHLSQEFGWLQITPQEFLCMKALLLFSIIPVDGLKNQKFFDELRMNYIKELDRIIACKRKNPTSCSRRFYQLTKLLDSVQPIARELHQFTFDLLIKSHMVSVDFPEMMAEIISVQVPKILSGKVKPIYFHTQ

[3] = biological target: Gamma-aminobutyric acid receptor subunit alpha-1 (Rattus norvegicus, UniProt P62813)
Chain of Gamma-aminobutyric acid receptor subunit alpha-1 (P62813 whole entry): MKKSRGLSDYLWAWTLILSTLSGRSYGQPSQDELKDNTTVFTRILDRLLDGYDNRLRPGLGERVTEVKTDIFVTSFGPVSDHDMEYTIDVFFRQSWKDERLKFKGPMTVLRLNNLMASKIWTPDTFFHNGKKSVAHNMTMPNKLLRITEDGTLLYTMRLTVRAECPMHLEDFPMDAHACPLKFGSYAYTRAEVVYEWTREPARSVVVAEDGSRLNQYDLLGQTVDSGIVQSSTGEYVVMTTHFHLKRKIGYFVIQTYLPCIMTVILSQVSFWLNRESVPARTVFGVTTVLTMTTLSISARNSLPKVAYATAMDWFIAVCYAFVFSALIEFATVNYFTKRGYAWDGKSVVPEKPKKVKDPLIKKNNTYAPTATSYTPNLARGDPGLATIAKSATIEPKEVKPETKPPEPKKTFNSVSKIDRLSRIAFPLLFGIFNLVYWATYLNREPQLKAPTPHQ

[4] = biological target: Sodium-dependent noradrenaline transporter (Homo sapiens, UniProt P23975)
Histamine H2 receptor = Histamine H2 receptor (Homo sapiens, UniProt P25021); format: functional, cell-based
Chain of Histamine H2 receptor (P25021 whole entry): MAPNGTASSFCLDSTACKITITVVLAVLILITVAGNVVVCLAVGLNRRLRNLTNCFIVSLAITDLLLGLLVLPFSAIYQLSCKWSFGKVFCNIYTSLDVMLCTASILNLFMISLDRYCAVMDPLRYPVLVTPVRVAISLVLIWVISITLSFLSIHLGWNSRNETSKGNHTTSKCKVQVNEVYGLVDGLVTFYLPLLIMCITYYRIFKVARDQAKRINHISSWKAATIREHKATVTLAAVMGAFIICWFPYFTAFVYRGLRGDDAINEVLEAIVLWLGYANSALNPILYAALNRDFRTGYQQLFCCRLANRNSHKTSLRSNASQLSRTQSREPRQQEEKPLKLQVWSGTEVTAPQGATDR

Androgen receptor [5] = biological target: T2, Androgen receptor (Rattus norvegicus, UniProt P15207); format: functional
T2 sequence (P15207 whole entry): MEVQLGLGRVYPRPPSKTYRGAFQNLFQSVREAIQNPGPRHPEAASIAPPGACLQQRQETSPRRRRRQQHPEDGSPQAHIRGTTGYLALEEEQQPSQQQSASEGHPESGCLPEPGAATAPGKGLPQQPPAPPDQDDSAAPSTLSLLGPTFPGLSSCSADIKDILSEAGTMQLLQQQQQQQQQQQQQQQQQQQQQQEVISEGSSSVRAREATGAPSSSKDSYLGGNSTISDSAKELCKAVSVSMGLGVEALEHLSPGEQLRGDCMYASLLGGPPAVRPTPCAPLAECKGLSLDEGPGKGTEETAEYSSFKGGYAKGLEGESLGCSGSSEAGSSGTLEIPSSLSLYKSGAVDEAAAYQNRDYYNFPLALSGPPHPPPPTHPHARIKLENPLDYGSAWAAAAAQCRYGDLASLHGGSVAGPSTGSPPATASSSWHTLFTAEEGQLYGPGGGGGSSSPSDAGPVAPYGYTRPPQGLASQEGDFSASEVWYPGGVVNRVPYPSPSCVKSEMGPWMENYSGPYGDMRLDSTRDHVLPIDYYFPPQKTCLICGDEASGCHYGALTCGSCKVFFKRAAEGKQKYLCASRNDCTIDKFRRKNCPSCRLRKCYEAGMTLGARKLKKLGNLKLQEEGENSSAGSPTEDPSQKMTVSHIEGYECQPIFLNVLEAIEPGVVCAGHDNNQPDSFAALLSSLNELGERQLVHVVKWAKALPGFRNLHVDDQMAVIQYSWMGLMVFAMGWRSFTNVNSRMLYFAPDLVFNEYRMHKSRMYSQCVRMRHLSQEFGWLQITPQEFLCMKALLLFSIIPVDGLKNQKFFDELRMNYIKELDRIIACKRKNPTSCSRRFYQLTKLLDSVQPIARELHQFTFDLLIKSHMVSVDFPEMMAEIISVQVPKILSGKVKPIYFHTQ

[6] = biological target: Neuronal acetylcholine receptor subunit alpha-4 (Homo sapiens, UniProt P43681)
Chain of Neuronal acetylcholine receptor subunit alpha-4 (P43681 whole entry): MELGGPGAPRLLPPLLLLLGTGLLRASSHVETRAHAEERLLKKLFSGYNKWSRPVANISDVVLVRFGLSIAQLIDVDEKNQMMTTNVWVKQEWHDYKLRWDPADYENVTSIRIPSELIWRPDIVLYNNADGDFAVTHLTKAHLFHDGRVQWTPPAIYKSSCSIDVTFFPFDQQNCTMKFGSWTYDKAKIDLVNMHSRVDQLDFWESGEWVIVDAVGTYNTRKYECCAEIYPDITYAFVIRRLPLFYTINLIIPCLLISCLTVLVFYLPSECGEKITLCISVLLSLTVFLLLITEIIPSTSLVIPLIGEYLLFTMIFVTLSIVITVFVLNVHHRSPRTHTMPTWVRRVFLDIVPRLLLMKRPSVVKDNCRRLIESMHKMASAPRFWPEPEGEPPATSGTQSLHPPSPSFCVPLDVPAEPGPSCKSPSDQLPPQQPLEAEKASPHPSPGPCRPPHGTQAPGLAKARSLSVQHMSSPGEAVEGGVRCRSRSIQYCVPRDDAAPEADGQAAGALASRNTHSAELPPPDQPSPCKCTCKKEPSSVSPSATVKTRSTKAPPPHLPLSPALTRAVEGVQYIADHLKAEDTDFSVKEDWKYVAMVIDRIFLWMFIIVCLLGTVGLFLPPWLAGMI

[7] = biological target: Voltage-dependent L-type calcium channel subunit alpha-1C (Rattus norvegicus, UniProt P22002); format: functional
Chain of Voltage-dependent L-type calcium channel subunit alpha-1C (P22002 whole entry): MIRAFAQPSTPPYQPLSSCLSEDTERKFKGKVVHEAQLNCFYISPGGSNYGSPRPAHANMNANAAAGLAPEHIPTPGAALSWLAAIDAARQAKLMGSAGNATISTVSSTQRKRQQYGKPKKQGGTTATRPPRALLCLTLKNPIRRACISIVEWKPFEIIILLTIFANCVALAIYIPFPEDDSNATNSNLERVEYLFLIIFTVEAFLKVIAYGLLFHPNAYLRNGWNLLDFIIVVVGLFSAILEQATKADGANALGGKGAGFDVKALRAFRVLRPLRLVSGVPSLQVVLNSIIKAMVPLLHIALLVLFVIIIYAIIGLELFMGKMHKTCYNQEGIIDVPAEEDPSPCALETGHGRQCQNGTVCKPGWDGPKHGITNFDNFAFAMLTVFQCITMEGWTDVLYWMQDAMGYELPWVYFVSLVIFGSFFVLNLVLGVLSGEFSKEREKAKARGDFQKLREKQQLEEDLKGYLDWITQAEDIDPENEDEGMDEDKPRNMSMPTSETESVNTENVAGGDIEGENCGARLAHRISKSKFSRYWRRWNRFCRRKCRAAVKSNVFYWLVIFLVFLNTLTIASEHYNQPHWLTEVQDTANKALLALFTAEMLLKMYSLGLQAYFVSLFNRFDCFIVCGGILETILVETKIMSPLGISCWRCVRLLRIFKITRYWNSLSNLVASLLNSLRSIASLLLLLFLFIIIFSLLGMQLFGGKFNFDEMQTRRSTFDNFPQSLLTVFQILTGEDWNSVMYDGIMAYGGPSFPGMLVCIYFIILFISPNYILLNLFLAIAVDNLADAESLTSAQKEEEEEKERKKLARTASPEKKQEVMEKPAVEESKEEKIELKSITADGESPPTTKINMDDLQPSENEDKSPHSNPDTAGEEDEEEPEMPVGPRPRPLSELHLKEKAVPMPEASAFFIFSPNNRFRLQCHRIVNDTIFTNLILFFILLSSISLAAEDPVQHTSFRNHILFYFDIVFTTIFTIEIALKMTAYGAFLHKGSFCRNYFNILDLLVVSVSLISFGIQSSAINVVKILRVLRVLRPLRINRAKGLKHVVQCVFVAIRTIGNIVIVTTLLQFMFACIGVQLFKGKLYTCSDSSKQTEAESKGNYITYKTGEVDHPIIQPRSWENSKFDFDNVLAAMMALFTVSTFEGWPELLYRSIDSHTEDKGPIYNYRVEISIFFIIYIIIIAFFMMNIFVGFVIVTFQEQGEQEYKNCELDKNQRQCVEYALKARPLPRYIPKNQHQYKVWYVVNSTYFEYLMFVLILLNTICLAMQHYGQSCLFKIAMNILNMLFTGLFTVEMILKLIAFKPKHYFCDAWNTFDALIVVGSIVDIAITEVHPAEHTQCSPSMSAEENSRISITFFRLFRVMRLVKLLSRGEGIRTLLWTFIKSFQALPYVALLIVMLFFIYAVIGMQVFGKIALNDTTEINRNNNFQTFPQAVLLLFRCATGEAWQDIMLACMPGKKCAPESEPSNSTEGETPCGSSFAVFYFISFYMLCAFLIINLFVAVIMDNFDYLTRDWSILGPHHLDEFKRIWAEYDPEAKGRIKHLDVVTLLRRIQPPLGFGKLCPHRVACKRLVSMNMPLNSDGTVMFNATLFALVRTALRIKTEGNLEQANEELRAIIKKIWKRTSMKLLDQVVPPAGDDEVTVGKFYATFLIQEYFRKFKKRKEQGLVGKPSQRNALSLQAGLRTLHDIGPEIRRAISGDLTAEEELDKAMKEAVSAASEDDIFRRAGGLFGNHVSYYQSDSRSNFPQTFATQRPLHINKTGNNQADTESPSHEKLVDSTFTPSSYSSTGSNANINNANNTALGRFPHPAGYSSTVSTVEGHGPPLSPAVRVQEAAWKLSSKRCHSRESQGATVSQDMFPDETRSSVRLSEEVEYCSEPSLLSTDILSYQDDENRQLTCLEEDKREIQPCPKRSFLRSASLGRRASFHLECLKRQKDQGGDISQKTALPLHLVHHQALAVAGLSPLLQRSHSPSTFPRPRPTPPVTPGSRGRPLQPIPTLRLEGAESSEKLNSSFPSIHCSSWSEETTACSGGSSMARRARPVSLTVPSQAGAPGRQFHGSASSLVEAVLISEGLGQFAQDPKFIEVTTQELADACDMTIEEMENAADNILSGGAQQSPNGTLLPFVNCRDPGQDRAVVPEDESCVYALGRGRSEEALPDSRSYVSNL

[8] = biological target: T3, Neuropeptide Y receptor type 1 (Homo sapiens, UniProt P25929)
T3 sequence (P25929 whole entry): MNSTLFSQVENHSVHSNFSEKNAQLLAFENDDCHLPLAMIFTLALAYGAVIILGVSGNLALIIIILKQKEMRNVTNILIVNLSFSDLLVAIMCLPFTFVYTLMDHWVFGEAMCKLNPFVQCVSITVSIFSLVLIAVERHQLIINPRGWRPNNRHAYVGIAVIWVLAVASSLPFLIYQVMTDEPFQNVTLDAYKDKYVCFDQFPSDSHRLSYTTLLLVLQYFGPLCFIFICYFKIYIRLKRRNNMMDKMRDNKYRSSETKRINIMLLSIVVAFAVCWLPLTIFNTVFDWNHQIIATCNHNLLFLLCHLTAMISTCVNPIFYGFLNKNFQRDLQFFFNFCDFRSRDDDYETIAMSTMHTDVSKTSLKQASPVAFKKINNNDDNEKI

Thromboxane A2 receptor = biological target: T4, Thromboxane A2 receptor (Homo sapiens, UniProt P21731)
T4 sequence (P21731 whole entry): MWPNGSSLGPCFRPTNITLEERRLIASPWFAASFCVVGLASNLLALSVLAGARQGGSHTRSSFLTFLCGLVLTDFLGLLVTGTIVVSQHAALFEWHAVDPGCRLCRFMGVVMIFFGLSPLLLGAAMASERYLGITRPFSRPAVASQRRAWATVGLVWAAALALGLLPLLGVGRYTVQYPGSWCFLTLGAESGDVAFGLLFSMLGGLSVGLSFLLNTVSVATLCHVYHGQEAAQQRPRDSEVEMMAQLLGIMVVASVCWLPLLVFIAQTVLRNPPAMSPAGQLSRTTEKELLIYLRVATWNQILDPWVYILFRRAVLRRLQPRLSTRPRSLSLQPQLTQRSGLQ

Mu-type opioid receptor = Mu-type opioid receptor (Homo sapiens, UniProt P35372); experiment: biochemical; format: functional
Chain of Mu-type opioid receptor (P35372 whole entry): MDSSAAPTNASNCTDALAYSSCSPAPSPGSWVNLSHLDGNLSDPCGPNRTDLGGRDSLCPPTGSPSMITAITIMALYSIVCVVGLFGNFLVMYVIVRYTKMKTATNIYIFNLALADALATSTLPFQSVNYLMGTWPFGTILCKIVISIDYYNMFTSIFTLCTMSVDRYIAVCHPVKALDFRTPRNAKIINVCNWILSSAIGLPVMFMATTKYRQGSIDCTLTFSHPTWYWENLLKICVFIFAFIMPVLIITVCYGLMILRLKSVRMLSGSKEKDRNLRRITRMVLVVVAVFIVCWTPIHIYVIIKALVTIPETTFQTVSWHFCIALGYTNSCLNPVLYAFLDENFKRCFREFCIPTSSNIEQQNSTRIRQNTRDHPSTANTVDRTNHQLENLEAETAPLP

D(1A) dopamine receptor = D(1A) dopamine receptor (Homo sapiens, UniProt P21728); format: functional, cell-based
Chain of D(1A) dopamine receptor (P21728 whole entry): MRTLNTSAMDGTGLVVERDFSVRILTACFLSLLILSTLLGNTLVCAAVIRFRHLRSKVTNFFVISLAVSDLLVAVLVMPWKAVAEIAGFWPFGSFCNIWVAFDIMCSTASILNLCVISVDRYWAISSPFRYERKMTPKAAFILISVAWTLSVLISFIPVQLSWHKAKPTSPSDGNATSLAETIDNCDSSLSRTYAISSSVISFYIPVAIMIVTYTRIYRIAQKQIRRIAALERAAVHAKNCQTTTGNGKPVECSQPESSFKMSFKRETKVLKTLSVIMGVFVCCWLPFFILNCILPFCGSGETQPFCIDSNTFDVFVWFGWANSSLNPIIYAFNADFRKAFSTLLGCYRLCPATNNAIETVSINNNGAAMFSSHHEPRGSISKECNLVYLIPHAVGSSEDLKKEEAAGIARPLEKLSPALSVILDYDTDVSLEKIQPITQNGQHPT
Further: assay procedure not described here.

Chain of Prostaglandin G/H synthase 1 (P23219 whole entry): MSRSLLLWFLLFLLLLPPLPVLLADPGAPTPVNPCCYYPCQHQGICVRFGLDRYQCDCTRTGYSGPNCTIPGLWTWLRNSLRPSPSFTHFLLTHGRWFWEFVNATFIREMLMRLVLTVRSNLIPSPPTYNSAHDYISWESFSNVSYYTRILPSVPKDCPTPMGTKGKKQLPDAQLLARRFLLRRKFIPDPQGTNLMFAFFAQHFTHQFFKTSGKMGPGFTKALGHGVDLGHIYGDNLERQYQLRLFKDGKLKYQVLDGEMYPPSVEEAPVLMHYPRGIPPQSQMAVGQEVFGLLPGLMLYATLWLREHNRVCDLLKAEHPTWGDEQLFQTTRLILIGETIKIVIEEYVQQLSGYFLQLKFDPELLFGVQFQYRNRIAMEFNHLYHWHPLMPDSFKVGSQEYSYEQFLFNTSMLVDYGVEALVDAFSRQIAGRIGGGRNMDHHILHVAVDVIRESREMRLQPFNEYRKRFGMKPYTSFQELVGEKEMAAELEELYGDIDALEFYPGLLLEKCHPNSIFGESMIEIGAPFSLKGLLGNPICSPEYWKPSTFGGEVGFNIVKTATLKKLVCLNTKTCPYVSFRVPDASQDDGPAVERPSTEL

Molecule: CN(C)c1ccc(C(=C2C=CC(=[N+](C)C)C=C2)c2ccc(N(C)C)cc2)cc1 [GENTIAN VIOLET]
- AC50 [1]: 20.8 µM
- AC50 (Androgen receptor [2]): > 30 µM

Molecule: Nc1ccc(S(N)(=O)=O)cc1 [SULFANILAMIDE]
- AC50 [3]: > 30 µM

- AC50 [4]: > 30 µM
- AC50 (Histamine H2 receptor): > 30 µM
- AC50 (Androgen receptor [5]): > 30 µM
- AC50 [6]: > 30 µM
- AC50 [7]: > 30 µM
- AC50 [8]: > 30 µM
- AC50 (Thromboxane A2 receptor): > 30 µM
- AC50 (Mu-type opioid receptor): > 30 µM
- AC50 (D(1A) dopamine receptor): > 30 µM
Molecule: HYDROXOCOBALAMIN
